In patent US20060025485A1, “Hydroxybenazamide compounds for treatment of cancer” (priority 2004, published 2006):

Legend:
in vitro [1] = settings: human, BON cells
Experimental: (§1) Cells tested (H727 and BON) were harvested by trypsinization and plated at a cell density of 3,000 cells/well of each microtiter plate. Cells were grown for 4 hrs at 37° C., with 5% CO2 in a humidified incubator to allow cell attachment to occur before compound addition. […] 10 μl of each compound stock was added to duplicate microtiter plates for each cell line. The final concentration of DMSO in all wells was 1%. To test 200 μM, 2% DMSO was added to each well. Data was compared to the effect of 2% DMSO. All compounds were tested in duplicate. Cells were incubated with the test compounds for 72 hrs before reading the assay. Then processing and calculation were performed according to manufacturer's directions for Cell Titer Glo Assay (Promega, Madison, Wis.).

in vitro [2] = settings: human, H727 cells
Experimental: as §1

Chromogranin A = assay: Western analysis of chromogranin A, BON-raf cells treated with estradiol; type: cell-based, human
Experimental: Usually, carcinoid tumors secrete high levels of both chromogranin A and serotonin due to disregulated hormone production. Similarly, BON cells treated with control or estradiol, and BON-raf cells treated with control had high levels of the NE marker chromogranin A as determined by Western analysis. […] In addition, BON and BON-raf cells were tested for serotonin secretion by ELISA after treatment with control or estradiol.
Cell culture. Human pulmonary carcinoid cells (NCI-H727) were obtained from American Type Culture Collection (Manassas, Va.) and human pancreatic carcinoid tumor cells, BON a generous gift of Drs. Evers and Townsend (Parekh et al., 1994), were maintained in RPMI 1640 and D-MEM-F12 media (Life Technologies, Rockville, Md.) respectively supplemented with 10% Fetal Bovine Serum (Sigma, St. Louis, Mo.), 100 IU/ml penicillin and 100 μg/ml streptomycin (Life Technologies) in a humidified atmosphere of 5% CO2 in air at 37° C. The maintenance of BON-raf cells and the activation of Raf-1 were followed as described previously (Sippel et al., 2003; Sippel and Chen, 2002; McMahon, 2001).
Western blot analysis. Cellular extracts were prepared and quantified by BCA protein assay kit (Pierce, Rockford, Ill.) as previously described (Sippel et al., 2003). 30-50 μg of denatured proteins from each sample underwent electrophoresis on a SDS-polyacrylamide gel and transferred to a nitrocellulose membranes (Schleicher and Schuell, Keene, N.H.). Membranes were blocked for 1 hr in milk solution (1×PBS, 5% non-fat dry milk, 0.05% Tween-20) and then incubated at 4° C. overnight with primary antibodies. The following primary antibody dilutions were used: phospho-ERK 1/2 (1:1,000); phospho-MEK (1:1,000); phospho-Raf-1 (Serine338) (1:1,000); p21 and p18, (1:1,000); (Cell Signal Technology, Beverly, Mass.), Chromogranin A (1:2,000; Zymed Laboratories, San Francisco, Calif.); MASH-1 (1:1000, BD Pharmingen) and G3PDH (1:10,000; Trevigen, Gaithersburg, Md.). After primary antibody incubation, membranes were washed 3×5 min in PBS-T wash buffer (1×PBS, 0.05% Tween 20). […]

[3] = tested on: c-Raf as well as MEK and ERK; settings: human monocytic THP-1 cells; cited from earlier work

COc1cccc2c1C(=O)c1c(O)c3c(c(O)c1C2=O)C[C@@](O)(C(=O)CO)C[C@@H]3O[C@H]1C[C@H](N)[C@H](O)[C@H](C)O1 [Doxorubicin]
IC50 at 72 h (in vitro [1]): 1400 nM | IC50 at 72 h (in vitro [2]): 1100 nM

C[C@]12CC[C@@H]3c4ccc(O)cc4CC[C@H]3[C@@H]1CC[C@@H]2O [Estradiol]
reduction of chromogranin A levels (Chromogranin A; 2 days): 31% | reduction of chromogranin A levels (Chromogranin A; 4 days): 68% | reduction of chromogranin A levels (Chromogranin A; 6 days): 50%

COc1nccc(-c2c(-c3ccc(F)cc3)ncn2C2CCC(O)CC2)n1 (stereo not drawn) [SB239063]
activation of c-Raf, MEK and ERK [3]: activates c-Raf as well as MEK and ERK
